This is an account of results in ChEMBL document CHEMBL1127341, “Synthesis and biological evaluation of 5-[[3,5-bis(1,1-dimethylethyl)- 4-hydroxyphenyl]methylene]oxazoles, -thiazoles, and -imidazoles: novel dual 5-lipoxygenase and cyclooxygenase inhibitors with antiinflammatory activity” (J Med Chem, 1994).

For experiment [1], the target named is T1, Polyunsaturated fatty acid 5-lipoxygenase (Rattus norvegicus, UniProt P12527).
T1 sequence (P12527 whole entry): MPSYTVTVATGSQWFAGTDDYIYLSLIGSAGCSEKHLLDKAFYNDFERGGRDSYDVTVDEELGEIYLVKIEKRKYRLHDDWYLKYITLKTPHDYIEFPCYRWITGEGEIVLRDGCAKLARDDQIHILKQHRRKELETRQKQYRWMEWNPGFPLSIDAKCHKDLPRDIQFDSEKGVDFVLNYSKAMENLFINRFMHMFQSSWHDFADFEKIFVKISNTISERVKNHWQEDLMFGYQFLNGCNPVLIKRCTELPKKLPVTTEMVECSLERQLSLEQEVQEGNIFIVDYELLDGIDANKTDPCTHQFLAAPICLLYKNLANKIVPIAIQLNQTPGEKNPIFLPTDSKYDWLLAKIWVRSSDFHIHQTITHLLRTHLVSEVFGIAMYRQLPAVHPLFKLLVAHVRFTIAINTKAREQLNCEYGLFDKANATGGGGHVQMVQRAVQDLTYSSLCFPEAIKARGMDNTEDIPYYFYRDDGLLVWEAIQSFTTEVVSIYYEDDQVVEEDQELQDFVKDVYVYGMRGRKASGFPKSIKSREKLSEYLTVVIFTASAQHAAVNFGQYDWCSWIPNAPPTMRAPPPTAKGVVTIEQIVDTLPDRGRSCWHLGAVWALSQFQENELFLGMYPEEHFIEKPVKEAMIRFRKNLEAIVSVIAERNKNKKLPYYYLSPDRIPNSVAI
Kind of experiment: Inhibitory activity against 5-lipoxygenase in intact rat basophilic leukemia cells stimulated with the calcium ionophore A-23187; N=Inactive. The experiment is classed as cell-based. The conditions noted are these: rbl-1.

In experiment [2] the target is T1, Polyunsaturated fatty acid 5-lipoxygenase.
Experiment [3] has as its target T2, Cyclooxygenase (Rattus norvegicus) (UniProt P35355+Q63921). Kind of experiment: Inhibitory activity against Prostaglandin G/H synthase in intact rat basophilic leukemia cells stimulated with the calcium ionophore A-23187 at 10 uM. In kind it is cell-based. The following applies: RBL-1.
Experiment [4] has as its target T1, Polyunsaturated fatty acid 5-lipoxygenase. Briefly: Inhibitory activity against 5-lipoxygenase in intact rat basophilic leukemia cells stimulated with the calcium ionophore A-23187; Inactive(N)= <50% inhibition at 10 uM. In kind it is cell-based. The following applies: rbl-1.
Experiment [5] deals with Rattus norvegicus. Kind of experiment: Inhibition of rat carrageenan induced foot-pad edema at a dose of 10 mg/kg on peroral administration. The experiment is classed as functional. The conditions noted are these: route oral. On the technique in general: Carrageenan injected into the paw causes an acute inflammation.
Experiment [6] deals with Rattus norvegicus. Kind of experiment: 40% inhibition of induced edema in the rat mycobacterium foot-pad edema test. In kind it is functional.
In experiment [7] the test system is Rattus norvegicus. Kind of experiment: Inhibition of rat carrageenan induced foot-pad edema at a dose of 30 mg/kg on peroral administration. In kind it is functional. The following applies: route oral.
Experiment [8] concerns the target T2, Cyclooxygenase (Rattus norvegicus). Briefly: Inhibitory activity at 10 uM against Prostaglandin G/H synthase in intact rat basophilic leukemia cells stimulated with the calcium ionophore A-23187. In kind it is cell-based. The conditions noted are these: RBL-1.
For experiment [9], the target named is T3, Polyunsaturated fatty acid 5-lipoxygenase (Rattus norvegicus) (UniProt P12527).
T3 sequence (whole entry): T1 sequence (P12527 whole entry)
Kind of experiment: Inhibitory activity at 1 uM against 5-lipoxygenase in intact rat basophilic leukemia cells stimulated with the calcium ionophore A-23187. The experiment is classed as cell-based. The following applies: RBL-1.

For experiment [10], the target named is T3, Polyunsaturated fatty acid 5-lipoxygenase (Rattus norvegicus). Kind of experiment: Inhibitory activity against 5-lipoxygenase in intact rat basophilic leukemia cells stimulated with the calcium ionophore A-23187. The experiment is classed as cell-based. The following applies: RBL-1; concentration not given here.

T2 sequence (P35355 whole entry, looked up): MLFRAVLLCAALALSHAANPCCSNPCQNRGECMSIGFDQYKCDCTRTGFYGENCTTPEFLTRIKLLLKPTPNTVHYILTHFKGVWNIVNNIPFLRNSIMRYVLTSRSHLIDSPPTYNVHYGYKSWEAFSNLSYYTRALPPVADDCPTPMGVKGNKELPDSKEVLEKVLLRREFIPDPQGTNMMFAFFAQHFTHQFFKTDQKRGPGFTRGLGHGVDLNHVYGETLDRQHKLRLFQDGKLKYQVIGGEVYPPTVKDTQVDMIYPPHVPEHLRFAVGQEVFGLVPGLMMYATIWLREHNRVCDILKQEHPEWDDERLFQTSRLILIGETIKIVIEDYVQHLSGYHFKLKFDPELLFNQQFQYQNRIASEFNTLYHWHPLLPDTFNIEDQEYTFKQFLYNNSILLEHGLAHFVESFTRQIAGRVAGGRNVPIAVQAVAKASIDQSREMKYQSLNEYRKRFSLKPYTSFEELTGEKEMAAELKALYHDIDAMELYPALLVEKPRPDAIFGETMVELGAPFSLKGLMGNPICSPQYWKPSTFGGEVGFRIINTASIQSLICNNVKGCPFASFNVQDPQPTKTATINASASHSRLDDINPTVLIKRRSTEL
T2 sequence (Q63921 whole entry, looked up): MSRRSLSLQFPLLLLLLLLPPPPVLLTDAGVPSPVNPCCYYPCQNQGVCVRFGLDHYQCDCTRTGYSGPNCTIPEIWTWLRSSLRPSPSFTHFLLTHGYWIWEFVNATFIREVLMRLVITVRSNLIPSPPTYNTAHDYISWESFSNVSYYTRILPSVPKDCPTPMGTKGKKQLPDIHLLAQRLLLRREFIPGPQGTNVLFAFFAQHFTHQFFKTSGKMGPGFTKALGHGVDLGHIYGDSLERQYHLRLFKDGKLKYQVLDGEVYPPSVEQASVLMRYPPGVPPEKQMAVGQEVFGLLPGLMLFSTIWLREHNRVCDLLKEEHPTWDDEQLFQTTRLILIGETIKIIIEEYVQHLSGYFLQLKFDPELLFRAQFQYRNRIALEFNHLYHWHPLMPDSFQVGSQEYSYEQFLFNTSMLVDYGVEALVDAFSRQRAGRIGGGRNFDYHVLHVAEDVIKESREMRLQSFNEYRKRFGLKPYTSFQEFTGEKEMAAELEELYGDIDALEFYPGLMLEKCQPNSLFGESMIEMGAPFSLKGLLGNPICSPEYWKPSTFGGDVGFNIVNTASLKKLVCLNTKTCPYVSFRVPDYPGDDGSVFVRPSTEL

For `O=C1NC(=O)/C(=C/c2ccc(O)cc2)S1`, the IC50 entry in [1] is given as “Not Active”.
`C/C(=C1/SC(=O)NC1=O)c1cc(C(C)(C)C)c(O)c(C(C)(C)C)c1` came in with an IC50 in [2] of 480 nM. Moreover, in [3], the inhibition was 52%.
As to `CNC1=NC(=O)/C(=C/c2cc(C(C)(C)C)c(O)c(C(C)(C)C)c2)S1`, the IC50 entry in experiment [4] is recorded as “Inactive”.
In the case of `Cc1ccc(Cl)c(Nc2ccccc2C(=O)[O-])c1Cl.O.[Na+]` [MECLOFENAMATE SODIUM], at 10 mg/kg the inhibition in vivo in the experiment on Rattus norvegicus [5] was 34%. Also, the ID40 in the experiment on Rattus norvegicus [6] is 0.4 mg/kg. Besides, the inhibition in vivo at 30 mg/kg in the experiment with Rattus norvegicus [7] turned out to be 41%.
For the compound `O=C1NC(=O)/C(=C/c2cc(I)c(O)c(I)c2)S1`, the inhibition in [8] was 60%. Further, the IC50 result in [4] is listed as “Inactive”.
Take `CONC1=NC(=O)/C(=C/c2cc(C(C)(C)C)c(O)c(C(C)(C)C)c2)S1`: in experiment [1], the IC50 result is “Not Active”.
Regarding `CN(C)C(=N)NC1=NC(=O)/C(=C/c2cc(C(C)(C)C)c(O)c(C(C)(C)C)c2)S1`, the inhibition in experiment [9] came out at 100%.
Consider `CN(C)C1=NC(=O)/C(=C/c2cc(C(C)(C)C)c(O)c(C(C)(C)C)c2)S1`, for which, in [10], the inhibition stood at 65%.

A word on the IC50: it is the point on the concentration scale where inhibition reaches its midpoint. By inhibition is commonly meant the percentage by which the read-out fell short of the control. One may read the inhibition in vivo as the drop in the measured response relative to a control, in per cent. Low readings indicate a weak effect, high ones a strong effect.
